Counter-ions that a name gives are not always drawn.
target: T1, CRF receptor (Rattus norvegicus, UniProt P35353); test: CRF receptor Binding Assay ([125I]-CRF, rat frontal cortical membranes); details: 125I-CRF 0.2 nM; rat frontal cortical membranes 0.3 mg-protein/ml; 25° C., 2 hours; nonspecific binding with 1 μM CRF; read-out: IC50 (concentration of the test compound which 50% inhibits the 125I-CRF binding)
T1 sequence (P35353 24-415): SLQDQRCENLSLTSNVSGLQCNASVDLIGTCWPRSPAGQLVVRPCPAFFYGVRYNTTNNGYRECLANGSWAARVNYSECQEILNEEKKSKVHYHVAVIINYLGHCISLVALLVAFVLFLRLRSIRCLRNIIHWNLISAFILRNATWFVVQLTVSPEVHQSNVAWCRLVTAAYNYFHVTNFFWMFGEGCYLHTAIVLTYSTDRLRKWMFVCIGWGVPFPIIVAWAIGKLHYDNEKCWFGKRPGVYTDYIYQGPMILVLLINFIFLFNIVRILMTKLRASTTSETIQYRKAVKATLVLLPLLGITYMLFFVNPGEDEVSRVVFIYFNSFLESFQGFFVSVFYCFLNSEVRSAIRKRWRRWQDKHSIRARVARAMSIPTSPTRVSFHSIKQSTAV

SMILES	IC50
CCN(c1nc(C)cc(N2CC=C(c3ccccc3)CC2)n1)c1ccc(C(C)C)cc1Br [Compound 1-01, 2-[N-(2-bromo-4-isopropylphenyl)-N-ethylamino]-4-(4-phenyl-1,2,3,6-tetrahydropyridin-1-yl)-6-methylpyrimidine hydrochloride]	66.1 nM
CCN(c1nc(C)cc(N2CCC=C(c3cccc(Cl)c3)C2)n1)c1ccc(C(C)C)cc1SC [Compound 2-09]	97.7 nM
CCN(c1nc(C)cc(N2CC=C(c3ccc(F)cc3)CC2)n1)c1ccc(C(C)C)cc1SC [Compound 1-16]	81.1 nM
CCN(c1nc(C)cc(N2CC=C(c3ccc(Cl)cc3)CC2)n1)c1ccc(C2CCCC2)cc1SC [Compound 1-54]	65.8 nM
CCN(c1nc(C)cc(N2CC=C(c3cccc(C)c3)CC2)n1)c1ccc(C(C)C)cc1Br [Compound 1-73]	65.8 nM
CCN(c1nc(C)cc(N2CCC=C(c3ccc(F)cc3)C2)n1)c1ccc(N(C)C)cc1Br [Compound 2-06]	96.2 nM
CCN(c1nc(C)cc(N2CC=C(c3ccc(C)cc3)CC2)n1)c1ccc(C(C)C)cc1Br [Compound 1-74]	62.9 nM
CCN(c1nc(C)cc(N2CCC=C(c3cccc(F)c3)C2)n1)c1ccc(C(C)C)cc1SC [Compound 2-03]	82.3 nM
C#CCN(c1nc(C)cc(N2CC=C(c3cccc(F)c3)CC2)n1)c1ccc(C(C)C)cc1SC [Compound 1-08]	89 nM
CCN(c1nc(C)cc(N2CCC=C(c3ccc(F)cc3)C2)n1)c1ccc(C(C)C)cc1Br [Compound 2-04]	82.3 nM
CCN(c1nc(C)cc(N2CC=C(c3ccc(F)cc3)CC2)n1)c1ccc(N(C)C)cc1Br [Compound 1-17]	73.9 nM
CCN(c1nc(C)cc(N2CCC=C(c3ccccc3)C2)n1)c1ccc(C(C)C)cc1Br [Compound 2-01, 2-[N-(2-bromo-4-isopropylphenyl)-N-ethylamino]-4-(5-phenyl-1,2,3,6-tetrahydropyridin-1-yl)-6-methylpyrimidine hydrochloride]	89 nM
CCN(c1nc(C)cc(N2CCC=C(c3cccc(C)c3)C2)n1)c1ccc(C(C)C)cc1SC [Compound 2-18]	70.4 nM
CCN(c1nc(C)cc(N2CC=C(c3ccc(F)cc3)CC2)n1)c1ccc(C(C)C)cc1Br [Compound 1-15]	79.3 nM
CCN(c1nc(C)cc(N2CC=C(c3ccc(F)c(F)c3)CC2)n1)c1ccc(C(C)C)cc1SC [Compound 1-21]	81.1 nM
CCN(c1nc(C)cc(N2CC=C(c3ccc(Cl)cc3)CC2)n1)c1ccc(Br)cc1Br [Compound 1-57]	65.8 nM
CCN(c1nc(C)cc(N2CC=C(c3ccc(F)c(F)c3)CC2)n1)c1ccc(N(C)C)cc1Br [Compound 1-22]	89 nM
CCN(c1nc(C)cc(N2CCC=C(c3cccc(F)c3)C2)n1)c1ccc(C(C)C)cc1Br [Compound 2-02]	96.2 nM
CCN(c1nc(C)cc(N2CCC=C(c3cc(F)cc(F)c3)C2)n1)c1ccc(C(C)C)cc1SC [Compound 2-13]	82.3 nM
C#CCN(c1nc(C)cc(N2CC=C(c3cccc(Cl)c3)CC2)n1)c1ccc(C(C)C)cc1Br [Compound 1-31]	96.2 nM
CCN(c1nc(C)cc(N2CC=C(c3cccc(F)c3)CC2)n1)c1c(C)cc(C)cc1C [Compound 1-14]	73.9 nM
CCN(c1nc(C)cc(N2CC=C(c3ccc(OC)cc3)CC2)n1)c1ccc(C(C)C)cc1Br [Compound 1-77]	82.4 nM
CCN(c1nc(C)cc(N2CCC=C(c3ccc(C)cc3)C2)n1)c1ccc(C(C)C)cc1SC [Compound 2-19]	70.4 nM
CCN(c1nc(C)cc(N2CC=C(c3ccc(Cl)c(Cl)c3)CC2)n1)c1ccc(C(C)C)cc1Br [Compound 1-61]	67.3 nM

Further lines, results first:

IC50	SMILES
10.8 nM	CCN(c1nc(C)cc(N2CCC=C(c3ccccc3C)C2)n1)c1ccc(C(C)C)cc1SC [Compound 2-15, 2-[N-(4-isopropyl-2-methylthiophenyl)-N-ethylamino]-4-[5-(2-methylphenyl)-1,2,3,6-tetrahydropyridin-1-yl]-6-methylpyrimidine hydrochloride]
52.2 nM	CCN(c1nc(C)cc(N2CC=C(c3cccs3)CC2)n1)c1ccc(C(C)C)cc1Br [Compound 1-78, 2-[N-(2-bromo-4-isopropylphenyl)-N-ethylamino]-4-[4-(thiophen-2-yl)-1,2,3,6-tetrahydropyridin-1-yl]-6-methylpyrimidine]
44.5 nM	CCN(c1nc(C)cc(N2CC=C(c3ccco3)CC2)n1)c1ccc(C(C)C)cc1Br [Compound 1-79, 2-[N-(2-bromo-4-isopropylphenyl)-N-ethylamino]-4-[4-(furan-2-yl)-1,2,3,6-tetrahydropyridin-1-yl]-6-methylpyrimidine]
27.6 nM	CCN(c1nc(C)cc(N2CC=C(c3cccc(F)c3)CC2)n1)c1ccc(C(C)C)cc1I [Compound 1-05]
24.8 nM	CCN(c1nc(C)cc(N2CC=C(c3cccc(Cl)c3)CC2)n1)c1ccc(C(C)C)cc1Br [Compound 1-30, 2-[N-(2-bromo-4-isopropylphenyl)-N-ethylamino]-4-[4-(3-chlorophenyl)-1,2,3,6-tetrahydropyridin-1-yl]-6-methylpyrimidine hydrochloride]
51.5 nM	C#CCN(c1nc(C)cc(N2CC=C(c3cccc(Cl)c3)CC2)n1)c1ccc(C(C)C)cc1SC [Compound 1-36]
38.5 nM	CCN(c1nc(C)cc(N2CC=C(c3cccc(F)c3)CC2)n1)c1ccc(N(C)C)cc1Br [Compound 1-12]
10.5 nM	CCN(c1nc(C)cc(N2CC=C(c3cccc(F)c3)CC2)n1)c1ccc(C(C)C)cc1SC [Compound 1-06]
46.4 nM	CCN(c1nc(C)cc(N2CC=C(c3cc(F)cc(F)c3)CC2)n1)c1ccc(C(C)C)cc1Br [Compound 1-25]
46.4 nM	CCN(c1nc(C)cc(N2CC=C(c3cccc(C(F)(F)F)c3)CC2)n1)c1ccc(C(C)C)cc1Br [Compound 1-66]
31.3 nM	C#CCN(c1nc(C)cc(N2CC=C(c3ccc(Cl)cc3)CC2)n1)c1ccc(C(C)C)cc1Br [Compound 1-46]
32 nM	CCN(c1nc(C)cc(N2CC=C(c3ccc(Cl)c(Cl)c3)CC2)n1)c1ccc(C(C)C)cc1SC [Compound 1-62]
61.4 nM	CCN(c1nc(C)cc(N2CC=C(c3cccc(C(F)(F)F)c3)CC2)n1)c1ccc(N(C)C)cc1Br [Compound 1-67]
38.5 nM	CCN(c1nc(C)cc(N2CC=C(c3cccc(C(F)(F)F)c3)CC2)n1)c1ccc(C(C)C)cc1SC [Compound 1-68]
20.2 nM	C#CCN(c1nc(C)cc(N2CCC=C(c3ccc(F)cc3)C2)n1)c1ccc(C(C)C)cc1SC [Compound 2-07]
35.1 nM	CCN(c1nc(C)cc(N2CC=C(c3cc(F)cc(F)c3)CC2)n1)c1ccc(C(C)C)cc1SC [Compound 1-26]
21.5 nM	CCN(c1nc(C)cc(N2CC=C(c3ccc(Cl)cc3)CC2)n1)c1ccc(C(C)C)cc1SC [Compound 1-51]
12.6 nM	C#CCN(c1nc(C)cc(N2CC=C(c3cc(F)cc(F)c3)CC2)n1)c1ccc(C(C)C)cc1SC [Compound 1-27]
55.9 nM	CCN(c1nc(C)cc(N2CC=C(c3cccc(Cl)c3)CC2)n1)c1ccc(N(C)C)cc1Br [Compound 1-33]
32.2 nM	C#CCN(c1nc(C)cc(N2CC=C(c3cccc(F)c3)CC2)n1)c1ccc(C(C)C)cc1Br [Compound 1-03]
27.6 nM	CCN(c1nc(C)cc(N2CCC=C(c3ccc(F)cc3)C2)n1)c1ccc(C(C)C)cc1SC [Compound 2-05]
49.8 nM	CCN(c1nc(C)cc(N2CC=C(c3ccc(F)c(F)c3)CC2)n1)c1ccc(C(C)C)cc1Br [Compound 1-20]
38.9 nM	CCN(c1nc(C)cc(N2CC=C(c3ccc(Cl)cc3)CC2)n1)c1ccc(C(C)C)cc1Br [Compound 1-41]
22.1 nM	CCN(c1nc(C)cc(N2CC=C(c3cccc(F)c3)CC2)n1)c1ccc(C(C)C)cc1Br [Compound 1-02]
45.4 nM	CCN(c1nc(C)cc(N2CC=C(c3ccc(Cl)cc3)CC2)n1)c1ccc(N(C)C)cc1Br [Compound 1-55]
55.9 nM	CCN(c1nc(C)cc(N2CC=C(c3cccc(C(F)(F)F)c3)CC2)n1)c1c(C)cc(C)cc1C [Compound 1-71]
20.1 nM	CCN(c1nc(C)cc(N2CC=C(c3cccc(Cl)c3)CC2)n1)c1ccc(C(C)C)cc1SC [Compound 1-34]

Source: patent publication US6187781A, “4-Tetrahydropyridylpyrimidine derivatives” (Taisho Pharmaceutical Co., Ltd., priority 1997, dated 2001)
